Assay results as given in paper PMC6096703, “Pharmacokinetic drug interaction and safety after coadministration of clarithromycin, amoxicillin, and ilaprazole: a randomised, open-label, one-way crossover, two parallel sequences study” (European Journal of Clinical Pharmacology, 2018).

Columns and labels:
[1] = clinical; settings: male, human, in vivo, t1/2
Experimental: (§1) This was a randomised, open-label, one-way crossover, two parallel sequences study. A total of 32 subjects were randomised and assigned to one of the two parts. Subjects assigned to part 1 received a single dose of ilaprazole (Noltec Tab., IL-YANG Pharmaceutical Co.) 10 mg in the first period. Then, after a washout period of 10 days, clarithromycin (Klaricid Film Coated Tab., Abbott Korea) 500 mg and amoxicillin (Amoxicillin Cap. 500 mg Chongkundang, Chong Kun Dang Pharmaceutical Co., Korea) 1000 mg were administered twice daily for 6 days in the second period. Ilaprazole 10 mg was coadministered with clarithromycin and amoxicillin on the day 5 of the second period.
(§2) Subjects assigned to part 2 received single doses of both clarithromycin 500 mg and amoxicillin 1000 mg in the first period; after a washout period of 10 days, ilaprazole 10 mg was administered twice daily for 6 days in the second period. Clarithromycin 500 mg and amoxicillin 1000 mg were coadministered with ilaprazole on the day 5 of the second period (Fig. 1).
(§3) Serial blood samples were collected in anti-coagulated EDTA-K2 tubes at 0 (pre-dose), 1, 2, 2.5, 3, 3.5, 4, 4.5, 5, 6, 8, 12, 24, and 48 h after dosing of ilaprazole in part 1. The PK sampling points in part 2 were 0 (pre-dose), 0.5, 0.75, 1, 1.5, 2, 2.5, 3, 4, 6, 8, 12, 24, and 48 h after dosing of clarithromycin and amoxicillin. Blood sampling points were determined considering the time to reach peak concentration (Tmax) and elimination half-life (t1/2) of ilaprazole, clarithromycin, and amoxicillin [9, 10, 20]. Plasma concentrations of ilaprazole, clarithromycin, and amoxicillin were analysed using liquid chromatography-tandem mass spectrometry (LC-MS/MS). Samples were centrifuged for 10 min under 4 °C at 2000×g and stored below − 70 °C until analysis.
(§4) For the analysis of ilaprazole, 100 μL of plasma was added to polypropylene tubes and mixed with 10 μL of the internal standard (omeprazole) solution and 1 mL of acetonitrile. The mixture was vortexed for 1 min and centrifuged for 5 min at 11,337×g. The supernatant (100 μL) was collected and reconstituted with 600 μL of mobile phase. The supernatant (2 μL) was then injected into an LC-MS/MS system. An LC system (Shiseido Nanospace SI-2, Shiseido, Tokyo, Japan) was used with a mobile phase (10 mM ammonium formate/acetonitrile = 50/50 [v/v]) at 40 °C. Chromatographic separation was performed at a flow rate of 0.25 mL/min. The transition of ilaprazole was detected at m/z 367.0 to 184.2 by using an MS/MS system (API4000®, AB SCIEX, Washington DC, USA) in the multiple reaction monitoring (MRM) mode with a positive electrospray ionisation (ESI) source. The calibration curve was linear over the range of 5–1000 ng/mL, and the correlation coefficient (r) was > 0.995.
(§5) For the analysis of clarithromycin, 100 μL of plasma was added to polypropylene tubes and mixed with 10 μL of the internal standard (clarithromycin-N-methyl-^13C, d3) solution and 500 μL of acetonitrile. The mixture was vortexed for 1 min and centrifuged for 5 min at 11,337×g. The supernatant (50 μL) was collected and reconstituted with 1000 μL of 50% acetonitrile. The supernatant (3 μL) was then injected into the LC-MS/MS system. The LC system was used with a mobile phase (10 mM ammonium formate/acetonitrile = 20/80 [v/v]) at 40 °C. Chromatographic separation was performed at a flow rate of 0.2 mL/min. The transition of clarithromycin was detected at m/z 748.4 to 590.4 using an MS/MS system (4000QTRAP, AB SCIEX, Washington DC, USA) in the MRM mode with a positive ESI source. The calibration curve was linear over the range of 10–7000 ng/mL, and the correlation coefficient (r) was > 0.995.
(§6) For the analysis of amoxicillin, 100 μL of plasma was added to polypropylene tubes and mixed with 10 μL of internal standard (amoxicillin-d4) solution and 500 μL of acetonitrile. The mixture was vortexed for 1 min and centrifuged for 5 min at 11,337×g.

[2] = parameters: method as in PMID 16231964; settings: cited from earlier work
[3] = in vivo
Experimental: as §1, §2, §3, §4, §5, §6

[4] = Pharmacokinetic assessment of plasma concentrations (LC-MS/MS, non-compartmental analysis) after mono/dual and triple therapy; settings: for AUC(0-inf) / AUC(0-t) / Cmax / Vd/F / Tmax / half-life: male, human, plasma; for AUC(0-inf) / AUC(0-t) / Cmax / Vd/F / half-life: oral; for Tmax: po, median (min–max)
Experimental: as §1, §2, §3, §4, §5, §6

[5] = Safety assessment: adverse events and adverse drug reactions; type: in vivo, healthy Korean male volunteers; settings: Part I
Experimental: Safety and tolerability were evaluated throughout the study. The assessments included monitoring of all adverse events (AEs) based on physical examinations, vital signs, 12-lead ECG, routine haematology, serum chemistry, and urinalysis. The subjects were instructed to notify the study physicians or nurses of any AEs that occurred during the study. All AEs reported by subjects or detected in the assessments were recorded, and the investigators determined their relationship to the treatment. The severity of the AEs was evaluated based on the Common Terminology Criteria for Adverse Events (CTCAE, version 4.03).

[6] = AUCinf, dual therapy, period 1 of part 2, N = 15, arithmetic mean (SD)
[7] = AUCinf, geometric least square mean, dual therapy, period 1 of part 2, N = 15
[8] = AUCinf, geometric least square mean, triple therapy, period 2 of part 2, N = 15
[9] = AUCinf, triple therapy, period 2 of part 2, N = 15, arithmetic mean (SD)
[10] = AUClast, dual therapy, period 1 of part 2, N = 15, arithmetic mean (SD)
[11] = AUClast, geometric least square mean, dual therapy, period 1 of part 2, N = 15
[12] = AUClast, geometric least square mean, triple therapy, period 2 of part 2, N = 15
[13] = AUClast, triple therapy, period 2 of part 2, N = 15, arithmetic mean (SD)
[14] = dual therapy, period 1 of part 2, N = 15, arithmetic mean (SD)
[15] = geometric least square mean, dual therapy, period 1 of part 2, N = 15
[16] = geometric least square mean, triple therapy, period 2 of part 2, N = 15
[17] = triple therapy, period 2 of part 2, N = 15, arithmetic mean (SD)
[18] = clarithromycin 500 mg + amoxicillin 1000 mg oral single dose (dual therapy, period 1 of part 2), N = 15
[19] = clarithromycin 500 mg + amoxicillin 1000 mg oral with ilaprazole 10 mg (triple therapy, day 5 of period 2, part 2), N = 15
[20] = ilaprazole in triple therapy, period 2 of part 1, N = 13, arithmetic mean (SD)
[21] = 10 mg, ilaprazole monotherapy, period 1 of part 1, N = 13, arithmetic mean (SD)

## CC1(C)S[C@@H]2[C@H](NC(=O)[C@H](N)c3ccc(O)cc3)C(=O)N2[C@H]1C(=O)O [Amoxicillin, amoxicillin]
[1]
  half-life: 1.18 h
[2]
  bioavailability: 89–98%
[3]
  Plasma amoxicillin concentrations at 48 h after study drug administration: not detected
[3]; male, human
  AUCinf GMR (90% CI), triple therapy/dual therapy: 0.99 (0.83–1.17)
  AUClast GMR (90% CI), triple therapy/dual therapy: 0.98 (0.83–1.16)
  t1/2: 1.96 (3.26) h
[4]; [6]
  AUC(0-inf): 28500 ng·h/mL
[4]; [7]
  AUC(0-inf): 27200 ng·h/mL
[4]; [8]
  AUC(0-inf): 26900 ng·h/mL
[4]; [9]
  AUC(0-inf): 27400 ng·h/mL
[4]; [10]
  AUC(0-t): 27900 ng·h/mL
[4]; [11]
  AUC(0-t): 26700 ng·h/mL
[4]; [12]
  AUC(0-t): 26200 ng·h/mL
[4]; [13]
  AUC(0-t): 26700 ng·h/mL
[4]; [14]
  Cmax: 9370 ng/mL
  Vd/F: 64.7 L
[4]; [15]
  Cmax: 9140 ng/mL
[4]; [16]
  Cmax: 7910 ng/mL
[4]; [17]
  Cmax: 8140 ng/mL
  Vd/F: 95.1 L
[4]; [18]
  Tmax: 1.5 h
[4]; [19]
  Tmax: 2 h

## COc1ccnc(C[S+]([O-])c2nc3cc(-n4cccc4)ccc3[nH]2)c1C (centres unmarked) [Ilaprazole, ilaprazole]
[5]
  Subjects with adverse drug reactions: no drug-related AE
  Subjects with any adverse event: 5 (31.3) number (%) of subjects
[4]; [20]
  CL/F: 3.04 (1.11) L/h
  Cmax: 446 ng/mL
  Vd/F: 20.4 L
[4]; ilaprazole monotherapy, period 1 of part 1, N = 13, arithmetic mean (SD)
  CL/F: 3.28 (1.23) L/h
[4]; 10 mg, AUCinf, geometric least square mean, ilaprazole monotherapy, period 1 of part 1, N = 13
  AUC(0-inf): 3220 ng·h/mL
[4]; 10 mg, AUCinf, ilaprazole monotherapy, period 1 of part 1, N = 13, arithmetic mean (SD)
  AUC(0-inf): 3390 ng·h/mL
[4]; 10 mg, AUClast, geometric least square mean, ilaprazole monotherapy, period 1 of part 1, N = 13
  AUC(0-t): 3140 ng·h/mL
[4]; 10 mg, AUClast, ilaprazole monotherapy, period 1 of part 1, N = 13, arithmetic mean (SD)
  AUC(0-t): 3300 ng·h/mL
[4]; 10 mg, geometric least square mean, ilaprazole monotherapy, period 1 of part 1, N = 13
  Cmax: 447 ng/mL
[4]; [21]
  Cmax: 479 ng/mL
  Vd/F: 19.5 L
[4]; 10 mg, mean AUCinf, ilaprazole monotherapy
  AUC(0-inf): 3390 ng·h/mL
[4]; 10 mg, mean AUClast, ilaprazole monotherapy
  AUC(0-t): 3300 ng·h/mL
[4]; 10 mg, t1/2, ilaprazole monotherapy, period 1 of part 1, N = 13, arithmetic mean (SD)
  half-life: 4.16 h
[4]; AUCinf, geometric least square mean, ilaprazole in triple therapy, period 2 of part 1, N = 13
  AUC(0-inf): 3490 ng·h/mL
[4]; AUCinf, ilaprazole in triple therapy, period 2 of part 1, N = 13, arithmetic mean (SD)
  AUC(0-inf): 3680 ng·h/mL
[4]; AUClast, geometric least square mean, ilaprazole in triple therapy, period 2 of part 1, N = 13
  AUC(0-t): 3350 ng·h/mL
[4]; AUClast, ilaprazole in triple therapy, period 2 of part 1, N = 13, arithmetic mean (SD)
  AUC(0-t): 3540 ng·h/mL
[4]; geometric least square mean, ilaprazole in triple therapy, period 2 of part 1, N = 13
  Cmax: 414 ng/mL
[4]; mean AUCinf, ilaprazole in triple therapy
  AUC(0-inf): 3680 ng·h/mL
[4]; mean AUClast, ilaprazole in triple therapy
  AUC(0-t): 3540 ng·h/mL
[4]; t1/2, ilaprazole in triple therapy, period 2 of part 1, N = 13, arithmetic mean (SD)
  half-life: 4.66 h
[4]; 10 mg, ilaprazole 10 mg oral single dose alone (monotherapy, period 1 of part 1), N = 13
  Tmax: 3.5 h
[4]; ilaprazole 10 mg oral with clarithromycin 500 mg and amoxicillin 1000 mg (triple therapy, day 5 of period 2, part 1), N = 13
  Tmax: 3 h

## CC[C@H]1OC(=O)[C@H](C)[C@@H](O[C@H]2C[C@@](C)(OC)[C@@H](O)[C@H](C)O2)[C@H](C)[C@@H](O[C@@H]2O[C@H](C)C[C@H](N(C)C)[C@H]2O)[C@](C)(OC)C[C@@H](C)C(=O)[C@H](C)[C@@H](O)[C@]1(C)O [Clarithromycin, clarithromycin]
[4]; [14]
  CL/F: 36.6 (12.7) L/h
  Cmax: 1870 ng/mL
  Vd/F: 247 L
[4]; [6]
  AUC(0-inf): 15000 ng·h/mL
[4]; [7]
  AUC(0-inf): 14400 ng·h/mL
[4]; [8]
  AUC(0-inf): 15700 ng·h/mL
[4]; [9]
  AUC(0-inf): 16900 ng·h/mL
[4]; [10]
  AUC(0-t): 14600 ng·h/mL
[4]; [11]
  AUC(0-t): 14000 ng·h/mL
[4]; [12]
  AUC(0-t): 15300 ng·h/mL
[4]; [13]
  AUC(0-t): 16500 ng·h/mL
[4]; [15]
  Cmax: 1770 ng/mL
[4]; [16]
  Cmax: 1590 ng/mL
[4]; [17]
  Cmax: 1720 ng/mL
  Vd/F: 230 L
  CL/F: 34.4 (15.1) L/h
[4]; t1/2, dual therapy, period 1 of part 2, N = 15, arithmetic mean (SD)
  half-life: 4.84 h
[4]; t1/2, triple therapy, period 2 of part 2, N = 15, arithmetic mean (SD)
  half-life: 4.83 h
[4]; [18]
  Tmax: 2 h
[4]; [19]
  Tmax: 2.5 h
